The record followed here is paper PMC7911220, “Monoterpenoids from the Fruits of Amomum tsao-ko Have Inhibitory Effects on Nitric Oxide Production” (Plants, 2021).

The subject of data set [1] is LPS-induced NO production in RAW 264.7 cells. Nature of the data set: LPS-induced NO production, Griess reaction assay. It counts as cell-based, mouse. The following applies: read-out: IC50, inhibition of LPS-induced NO production. Here is the method: (§1) To obtain plant-derived inhibitors of NO as potential lead compounds for treating inflammation disorders, monoterpene constituents 1–6 isolated from the fruits of A. tsao-ko were assayed to determine their inhibitory activities on LPS-induced NO production in murine macrophage RAW 264.7 cells via the Griess reaction assay, as described previously.
(§2) Mouse RAW264.7 macrophage cells (TIB-71) were maintained in Dulbecco’s modified Eagle medium (DMEM) supplemented with 10% fetal bovine serum (FBS), 100 U/mL penicillin, and 0.1 mg/mL streptomycin in a humidified incubator with 5% CO2 at 37 °C.
(§3) The Griess reaction was performed to measure the concentration of nitrite in the medium as an indicator of NO production. RAW264.7 macrophage cells were cultured in a 96-well plate after seeding at a density of 4 × 10^5 cells/well for 24 h in DMEM supplemented with 10% FBS, and stimulated with or without LPS (1 μg/mL, Sigma Aldrich, St. Louis, MO, USA) in the presence or absence of the compounds. After 24 h of incubation at 37 °C, 5% CO2, the cell supernatant was reacted with equal volumes of Griess reagent solutions to determine nitrite production. Absorbance was measured with a microplate reader (Molecular Devices, Sanjose, CA, USA) at 540 nm. Cell viability was confirmed via MTT (Duchefa Biochemie, Haarlem, The Netherlands) assay. The supernatant was removed and medium containing MTT solution (5 mg/mL in phosphate-buffered saline) was added to each well and incubated for 2 h. The medium was removed, and 100 μL of dimethyl sulfoxide (Duchefa Biochemie, Haarlem, The Netherlands) was added to each well to dissolve the purple formazan product to obtain a colored solution. Absorbance was measured at 540 nm with a microplate reader.

For data set [2], the system named is RAW264.7 macrophage cells. Nature of the data set: MTT assay for cell viability. The settings on record: RAW 264.7 cells, LPS-stimulated. The method, then:
as §1, §2, §3

The test system of a further data set is iNOS mRNA. Description: RT-PCR of iNOS mRNA in LPS-stimulated RAW264.7 cells. It counts as cell-based, mouse. The following applies: 10, 50, 100 μM for 1 h, then LPS 1 μg/mL 24 h, normalized to GAPDH. Here is the method: (§4) Figure 2 Effects of (1R,4S,6S)-1,6-dihydroxy-2-menthene (compound 4) on iNOS protein and pro-inflammatory cytokine mRNA expression in LPS-stimulated RAW264.7 cells. RAW264.7 cells were pretreated with different concentrations (10, 50, 100 μM) of compound 4 for 1 h, and then stimulated with 1 µg/mL LPS for 24 h. (A,B) Western blot analysis of iNOS expression in cells treated with compound 4 (10, 50, 100 μM). β-Actin was used as a loading control. (C,D) Levels of iNOS, IL-1β, and IL-6 mRNAs were determined via RT-PCR. RT-PCR data results were expressed as the fold of changes of the target gene (iNOS, IL-1β, and IL-6) and normalized to the GAPDH. Values represent the mean ± SD of three independent experiments. […]
(§5) Next, we confirmed the effect of compound 4 on the expression of inflammatory factors, i.e., iNOS, IL-1β, and IL-6 in LPS-stimulated RAW264.7 cells. […] We measured the levels of the relevant mRNAs via reverse transcription polymerase chain reaction (RT-PCR). […]
(§6) RAW264.7 cells, plated in 6-well plates (1 × 10^6 cells/well), were treated with compound 4 (10, 50, and 100 μM) for 1 h prior to LPS, and stimulated with 1 μg/mL LPS or remained unstimulated for 24 h. […] The bands of interest were quantified using the ChemiDoc XRS system and Quantity One software (Bio-Rad Laboratories, Hercules, CA, USA).

For another data set, the system named is IL-6 mRNA. Description: RT-PCR of IL-6 mRNA in LPS-stimulated RAW264.7 cells. It counts as cell-based, mouse. The settings on record: 10, 50, 100 μM for 1 h, then LPS 1 μg/mL 24 h, normalized to GAPDH. The method, then:
as §4, §5, §6

Another data set relates to IL-1β mRNA. Description: RT-PCR of IL-1β mRNA in LPS-stimulated RAW264.7 cells. It counts as cell-based, mouse. The settings on record: 10, 50, 100 μM for 1 h, then LPS 1 μg/mL 24 h, normalized to GAPDH. The method, then:
as §4, §5, §6

Another data set concerns iNOS protein expression. Description: Western blot analysis of iNOS protein expression in LPS-stimulated RAW264.7 cells. It counts as cell-based, mouse. The settings on record: pretreatment 10, 50, 100 μM for 1 h, then LPS 1 μg/mL 24 h. The source says: L-Arginine-derived NO is an intracellular signaling molecule formed in mammalian cells by different three isoforms of nitric oxide synthase (NOS). The isozymes are referred to as neuronal NOS (nNOS or NOS I), inducible NOS (iNOS or NOS II), and an endothelial NOS (eNOS or NOS III). Excessive generation of NO by iNOS is seen in inflammatory diseases such as autoimmune and chronic inflammatory disorders. To examine the mechanism of NO inhibition by active compound 4, we evaluated iNOS protein expression via western blotting.
Figure 2 Effects of (1R,4S,6S)-1,6-dihydroxy-2-menthene (compound 4) on iNOS protein and pro-inflammatory cytokine mRNA expression in LPS-stimulated RAW264.7 cells. […] (C,D) Levels of iNOS, IL-1β, and IL-6 mRNAs were determined via RT-PCR. RT-PCR data results were expressed as the fold of changes of the target gene (iNOS, IL-1β, and IL-6) and normalized to the GAPDH. […]
RAW264.7 cells, plated in 6-well plates (1 × 10^6 cells/well), were treated with compound 4 (10, 50, and 100 μM). […] Protein expression was analyzed via immunoblotting with antibodies against anti-iNOS (cat. no. ab3523; dilution, 1:500, Abcam, Cambridge, UK) and β-actin (cat. no. 5125; dilution, 1:1000, Cell Signaling Technology, Danvers, MA, USA). […] The bands of interest were quantified using the imageJ software.

Where [3] appears, read: Mus musculus, RAW264.7, RAW 264.7 cells, LPS 1 μg/mL, 24 h, Griess reagent.

Read-outs that look alike come from different tables or passages of the source.

Take `O=CC1=CC[C@@H](O)[C@H]2CCC[C@@H]12` [Compound 1, tsaokoin]: the IC50 in data set [1] (Mus musculus, RAW264.7, 24 h) was > 100 µM. Also, in data set [2], the “MTT (cell viability)” value was >100 µM.
On to `CC1=C[C@@H](O)[C@H](C(C)C)C[C@H]1O` [Compound 2, (3S,4S,6R)-3,6-dihydroxy-1-menthene], for which the half-maximal inhibitory concentration (IC50) in data set [1] (setting [3]) is > 100 µM. For the same molecule, the “MTT (cell viability)” value in data set [2] is >100 µM.
`C=C(C)[C@H]1CC[C@@](C)(O)C[C@@H]1O` [Compound 3, (1R,3S,4R)-3-hydroxy isopulegol]: the IC50 in data set [1] (setting [3]) is > 100 µM. The “MTT (cell viability)” value in data set [2] is >100 µM.
Turning to `CC(C)[C@H]1C=C[C@@](C)(O)[C@@H](O)C1` [Compound 4, (1R,4S,6S)-1,6-dihydroxy-2-menthene], the IC50 in data set [1] (setting [3]) worked out at 82.5 µM. The “iNOS mRNA expression” value in the data set on iNOS mRNA is “decreased the iNOS expression at the mRNA level, in a dose-dependent manner”. Also, the “IL-6 mRNA level” value in the data set on IL-6 mRNA is listed as “reduced”. Also, the “IL-1β mRNA level” value with IL-1β mRNA is on record as “reduced”. Further, the iNOS protein expression entry with iNOS protein expression is “significantly and dose-dependently inhibited iNOS expression”. In data set [2], the “MTT (cell viability)” value is >100 µM.
In the case of `CC(=CCO)CCCC(C)CO` (stereo not drawn) [Compound 5, 3,7-dimethyl-2-octene-1,8-diol], the IC50 in data set [1] (setting [3]) was > 100 µM. Further, the “MTT (cell viability)” value in data set [2] was >100 µM.
`C/C(C=O)=C\CC/C(C)=C/CO` [Compound 6, 8-oxogeraniol]: the IC50 in data set [1] (setting [3]) is > 100 µM. Further, in data set [2], the “MTT (cell viability)” value is >100 µM.
For `CC(=O)O.CNC(=N)NCCC[C@H](N)C(=O)O` [NG-methyl-L-arginine acetate, reference compound], the IC50 in data set [1] (RAW 264.7 cells, LPS 1 μg/mL, 24 h, Griess reagent) amounted to 34.2 µM. Also, in data set [2], the “MTT (cell viability)” value was >100 µM.

A word on the IC50: it is the concentration needed to halve the response being measured.
